Measurements: US11814341B2, “Non-peptidic cell-penetrating motifs” (Ohio State Innovation Foundation, priority 2018, dated 2023)

How the values were obtained:
[1] = test system: HeLa cells; experiment: JC-10 mitochondrial membrane potential assay; details: 20 μM, 24 h; above the normal value
Procedure: Procedure: Mitochondria membrane potential assay. Experiments were carried out by using JC-10 Mitochondrial Membrane Potential Assay kit (Abcam, ab112134) according to the manufacturer's manual. Briefly, HeLa cells (2×10^4 cells/well) were seeded in a 96-well plate (black wall clear bottom) in 90 μL of DMEM containing 10% FBS and 1% penicillin/streptomycin and allowed to attach overnight. […] Without washing, cells were treated with 50 μL of a JC-10 dye solution (30 μM in buffer A) for 60 min. Fifty μL of buffer B was added and the fluorescence intensities at Ex/Em=490/520 nm and 540/590 nm were recorded on a microplate reader (Infinite M1000Pro).
CPM1-3 was next tested for a potential effect on mitochondrial membrane potential, a key indicator of cell health or injury. HeLa cells untreated or treated with CPM were labeled with JC-10, a dye molecule which emits green fluorescence inside the cytosol but red fluorescence inside the mitochondria. The ratio of green/red fluorescence (F520/F590) provides an indicator of the mitochondrial membrane potential.

[2] = test system: HeLa cells; experiment: MTT viability assay, anti-cancer activity of Hsp90 inhibitors; type: cell-based; details: 24 h

| Compound | increase in the F520/F590 ratio [1] | maximum reduction in HeLa cell viability ([2]; 0-10 μM) [%] | inhibitor concentration at which maximal inhibition was reached [2] [µM] |
| --- | --- | --- | --- |
| p-trifluoromethoxy carbonyl cyanide phenyl hydrazone [FCCP] | up to 7 fold | – | – |
| COC1=C2C[C@@H](C)C[C@H](OC)[C@H](O)[C@@H](C)/C=C(\C)[C@H](OC(N)=O)[C@@H](OC)/C=C\C=C(/C)C(=O)NC(=CC1=O)C2=O [GA, geldanamycin] | – | ~40 | 0.3 |
